Laboratory results taken from article PMC8530378, “Comparison of: (2S,4R)-4-[^18F]Fluoroglutamine, [^11C]Methionine, and 2-Deoxy-2-[^18F]Fluoro-D-Glucose and Two Small-Animal PET/CT Systems Imaging Rat Gliomas” (Frontiers in Oncology, 2021).

Key:
[1] = [^18F]FGln in vivo stability analysis (bioavailable fraction of whole blood radioactivity); settings: both sexes, BDIX, rat, 40 MBq, healthy BDIX rats, approximately 60 min post-injection, n = 10, read-out: Bioavailable [^18F]FGln-fraction of total blood radioactivity
Procedure: Additional healthy BDIX rats (n = 10, 5 male, 5 female) were injected with approximately 40 MBq of [^18F]FGln and 150–200 µL aliquots of blood drawn at 5, 15, 30, 45, and 60 min into a heparin coated vial at 5°C to be assayed. During the final 60 min collection time point, animals were sacrificed under deep anesthesia via cardiac puncture and cervical dislocation. All radioactivity measurements were performed with a 3″ Nal system (Triathler, Hidex Oy, Turku Finland). Whole blood was weighed and measured for radioactivity before being centrifuged at 700 ×g and 4°C for 5 min. The plasma was separated out before being weighed and gamma counted followed by storage on ice for the later described assays. Hematocrit values used were averaged separately for male and female populations with five samples for each group. The following Equation 1 ([23]) was then used to calculate the radioactivity fraction taken up by the red blood cells and the available plasma fraction to avoid including plasma contamination in the blood cell fraction: […]
Where C = radioactivity concentration, ρ = density, RBC = red blood cell, and HCT = hematocrit. […]
Plasma aliquots (80 µL) were then precipitated with methanol (200 µL) before being vortexed thoroughly and centrifuged at 11,000 ×g for 10 min. The two fractions were separated and measured for radioactivity to calculate the unbound radioactivity fraction of the plasma. […]

[2] = tested on: BT4C glioma and healthy brain ROIs; assay: Logan plot (reversible uptake model) of dynamic [^18F]FGln PET; assay type: in vivo, BDIX rats; settings: n = 13; for DV (AB): arterial blood radioactivity input; for DV (P): unbound plasma radioactivity fraction input
Text: (§1) The dynamic PET image data was then extracted from each separate image and converted to standardized uptake values (SUV) which account for ROI volume, mean ROI radioactivity, subject weight, and total injected radioactivity dose (corrected for decay, residual syringe and cannula radioactivity). The results are shown as SUV ROI radioactivity curves over time as well as tumor-to-healthy brain region (TBR) ratios for improved comparisons. [^18F]FGln uptake data and blood radioactivity data (corrected for bioavailability fraction over time) were also input into multiple pharmacokinetic models described in the "[^18F]FGln Pharmacokinetic Modeling" section.
(§2) Blood input values from the heart left ventricle ROI in the PET image data were corrected for bioavailable fraction with Eqn. 2. Logan ([25]), Patlak ([26]), and two two-compartment models ([27]) (reversible and irreversible) were applied to whole-blood, unbound plasma fraction, and unbound plasma fraction assayed for parent-radiopharmaceutical purity as inputs for tumor and healthy brain ROIs. Mean, standard deviation, and two-tailed unpaired Student's t-test (for camera comparison, modeling values, and gender differences) p-values are reported where applicable.

[3] = tested on: BT4C glioma and healthy brain ROIs; assay: Reversible two-tissue compartment model of dynamic [^18F]FGln PET; assay type: in vivo, BDIX rats; settings: reversible 2-tissue model, n = 13; for K1 (AB) plasma to tissue transport rate / K1/k2 (AB) equilibrium distribution volume / k3 (AB) rate constant / k3/k4 (AB): arterial blood input; for K1 (FP) plasma to tissue transport rate / K1/k2 (FP) equilibrium distribution volume / k3 (FP) rate constant / k3/k4 (FP): free parent plasma input; for K1 (P) plasma to tissue transport rate / K1/k2 (P) equilibrium distribution volume / k3 (P) rate constant / k3/k4 (P): unbound plasma input
Text: as §1, §2

## NC(=O)[C@H]([18F])C[C@H](N)C(=O)O [[^18F]FGln, (2S,4R)-4-[^18F]Fluoroglutamine]
[1]
  bioavailability at 60 min: 28.1%
[2]; free parent plasma input
  Tumor DV/Healthy Brain DV (FP): 2.31 ± 0.40
[2]; healthy brain ROI
  DV (AB): 0.66 ± 0.19
  DV (P): 0.48 ± 0.14
[2]; healthy brain ROI, free parent plasma input
  DV (FP): 1.72 ± 0.66
[2]; tumor ROI
  DV (AB): 1.35 ± 0.36
  DV (P): 1.00 ± 0.30
[2]; tumor ROI, free parent plasma input
  DV (FP): 4.00 ± 1.96
[3]; healthy brain
  K1 (AB) plasma to tissue transport rate: 0.118 ± 0.132 mL min^-1 mL^-1
  K1/k2 (AB) equilibrium distribution volume: 0.248 ± 0.128 mL mL^-1
  k3 (AB) rate constant: 0.060 ± 0.039 min⁻¹
  k3/k4 (AB): 3.279 ± 1.395 min min^-1
  K1 (FP) plasma to tissue transport rate: 0.033 ± 0.023 mL min^-1 mL^-1
  K1/k2 (FP) equilibrium distribution volume: 0.528 ± 0.363 mL mL^-1
  k3 (FP) rate constant: 0.196 ± 0.354 min⁻¹
  k3/k4 (FP): 4.462 ± 1.312 min min^-1
  K1 (P) plasma to tissue transport rate: 0.041 ± 0.031 mL min^-1 mL^-1
  K1/k2 (P) equilibrium distribution volume: 0.137 ± 0.062 mL mL^-1
  k3 (P) rate constant: 0.086 ± 0.039 min⁻¹
  k3/k4 (P): 4.021 ± 1.249 min min^-1
[3]; tumor
  K1 (AB) plasma to tissue transport rate: 0.133 ± 0.079 mL min^-1 mL^-1
  K1/k2 (AB) equilibrium distribution volume: 0.551 ± 0.221 mL mL^-1
  k3 (AB) rate constant: 0.073 ± 0.054 min⁻¹
  k3/k4 (AB): 2.901 ± 1.331 min min^-1
  K1 (FP) plasma to tissue transport rate: 0.057 ± 0.023 mL min^-1 mL^-1
  K1/k2 (FP) equilibrium distribution volume: 1.646 ± 2.403 mL mL^-1
  k3 (FP) rate constant: 0.291 ± 0.481 min⁻¹
  k3/k4 (FP): 4.466 ± 1.378 min min^-1
  K1 (P) plasma to tissue transport rate: 0.052 ± 0.026 mL min^-1 mL^-1
  K1/k2 (P) equilibrium distribution volume: 0.331 ±0.125 mL mL^-1
  k3 (P) rate constant: 0.231 ± 0.478 min⁻¹
  k3/k4 (P): 3.191 ± 1.559 min min^-1
